Reference: patent US20190177440A1, “COMPOUND OR SALT THEREOF, ANTI-INFLAMMATORY AGENT, ANTI-CANCER AGENT AGAINST LUNG CANCER, METHOD OF PRODUCING COMPOUND OR SALTS THEREOF, METHOD OF TREATING INFLAMMATORY DISEASES AND METHOD OF TREATING LUNG CANCER” (TFK CO., LTD., priority 2016, published 2019)

Key:
TNF-α [1] = assay: TNF-α production in RAW264.7 cells stimulated with LPSp (Example 7); type: cell-based, mouse; conditions: final 1 ng/mL to 10 μg/mL, then LPSp 100 ng/mL, FIG. 7
Experimental: (§1) The culture medium was added to mouse macrophage cells (RAW264.7, ATCC) to prepare solutions at concentrations of 4×10^5 cells/mL. The solutions were seeded in 96-well flat-bottomed plates in 100 μL portions, i.e., 4×10^4 cells/100 μL/well. After seeding, the cells were incubated at 37° C. in 5% CO2 for 2 hours until they adhered to the bottoms of the wells and extended. Next, 100 μL of the test solution was added to each well. After adding the test solution, the cells were incubated at 37° C. in a 5% CO2 for 24 hours. After the incubation, the culture supernatant of the wells was removed, 150 μl of the above-mentioned culture solution was newly added (hereinafter, this step is referred to as a “culture solution adding step”), and the wells were incubated at 37° C. in a 5% CO2 for 24 hours.
(§2) After incubation, 50 μl of culture supernatant from each well was collected, transferred to each well of new 96-well flat-bottom plates, and absorbance was measured using mouse TNF a assay kit (manufactured by Biolegend) and converted to TNF-α concentrations.
In this example, an experiment was carried out in the same manner as in Example 6 except for the following two points, and 50 μL of culture supernatant of each well was collected and TNF-α concentration was measured. That is, in this example, a total of five test solutions were used as the test solution, in which the concentration of the purified product was 20 μg/mL, 2 μg/mL, 200 ng/mL, 20 ng/mL, and 2 ng/mL. Since the five test solutions are diluted twice when added to the cells, the final concentrations of the purified products are 10 μg/mL, 1 μg/mL, 100 ng/mL, 10 ng/mL, and 1 ng/mL, respectively. In this example, in the culture medium adding step in Example 5, 150 μL of the culture medium containing LPSp at a final concentration of 100 ng/mL was added instead of 150 μL of the culture medium.

TNF-α [2] = assay: TNF-α production in RAW264.7 mouse macrophage cells (Example 6); type: cell-based; conditions: final 0.01, 0.1 and 1 ng/mL, no LPSp, FIG. 6
Experimental: In the same manner as “(1) Preparation of test solution” in Example 3, a solution having a concentration of the purified product of 20,000 ng/mL was prepared, and the solution was serially diluted with a culture solution having the following composition, thereby obtaining a total of three test solutions having a concentration of 2 ng/mL, 0.2 ng/mL, and 0.02 ng/mL. Since the three test solutions are diluted twice when added to the cells, the final concentrations of the purified products are 1 ng/mL, 0.1 ng/mL, and 0.01 ng/mL, respectively.
as §1, §2

IL-6 = IL-6 production in THP-1 cells stimulated with LPSp, with or without PPARγ inhibitor GW9662 (Example 8-1); type: cell-based, human; conditions: final 100, 1,000 and 10,000 ng/mL, LPSp 100 ng/mL, GW9662- (PPARγ not inhibited), FIG. 8
Experimental: In the same manner as “(1) Preparation of test solution” in Example 3, a solution having a concentration of the purified product of 20,000 ng/mL was prepared, and the solution was serially diluted with a culture solution having the following composition, thereby obtaining a total of three test solutions having a concentration of 400 ng/mL, 4,000 ng/mL, and 40000 ng/mL. Since the three test solutions are diluted four-fold when added to the cells, the final concentrations of the purified products are 100 ng/mL, 1,000 ng/mL, and 10,000 ng/mL, respectively.
The culture medium was added to cells derived from human peripheral blood monocytes (THP-1, manufactured by DS Pharma Biomedical Co., Ltd.) to prepare solutions in which the concentrations of the cells were 4×10^5 cells/mL. The solutions were seeded in 24 well plates in 500 μL portions, i.e., 2.0×10^5 cells/500 μL/well. After seeding, 250 μL of the culture medium or 250 μL of the culture medium containing 40 μmol/L of GW9662 (manufactured by Wako Pure Chemical Industries, Ltd.) was added to the wells. The GW9662 is an inhibitor of PPARγ (Peroxisome proliferator-activated receptor γ) which is one type of nuclear receptor. After the addition, the mixture was incubated at 37° C. in a 5% CO2 for 1 hour. Thereafter, 250 μl of the test solution was added to each well, and the wells were incubated at 37° C. in a 5% CO2 for 22 hours. After culturing, the culture supernatant of each well was collected in a 2 mL tube. A new 0.5 mL of the culture medium was added to each well, spread over the whole well, and collected in the 2 mL tube. To each empty well was added 0.49 mL of fresh culture medium. The culture solution collected in the 2 mL tube was centrifuged at 1,000 rpm for 5 minutes, the supernatant was removed, and 1 mL of the fresh culture solution was added to suspend, and centrifuged again under the same conditions. After centrifugation, the supernatant was removed and 0.49 mL of culture medium in each well was added to the 2 mL tube, suspended and returned to each well. Then, 250 μL of the culture medium or 250 μL of the culture medium containing 40 μmol/L of the above GW9662 was added to the wells, and the wells were cultured at 37° C. in a 5% CO2 for 1 hour. After the incubation, 250 μL of the culture medium containing LPSp was added to the wells so that the final concentration of the LPSp was 100 ng/mL, and the wells were incubated at 37° C. in a 5% CO2 for 22 hours.
After culturing, the culture supernatants of the wells were collected in tubes, centrifuged, and the supernatants were collected in 1.5-mL tubes. The absorbance was measured using Human IL-6 ELISA MAX Deluxe (Biolegend Corporation), and the concentrations of Interleukin-6 (IL-6) were calculated.

CCCCCC/C=C/CCCCCC(=O)OC(CCCCCCCCCCC)CC(=O)NC1C(OCC2OC(OP(=O)(O)O)C(NC(=O)CC(=O)CCCCCCCCCCC)C(OC(=O)CC(O)CCCCCCC)C2O)OC(COC2(C(=O)O)CC(OC3(C(=O)O)CC(OC4OC(C(=O)O)C(OC5OC(CO)C(O)C(O)C5O)C(O)C4O)C(O)C(C(O)CO)O3)C(OC3OC(COP(=O)(O)O)C(OC4OC(CO)C(O)C(O)C4O)C(O)C3O)C(C(O)CO)O2)C(OP(=O)(O)O)C1OC(=O)CC(O)CCCCCCC (stereo not drawn) [Formula (A1)]
Equivalent results were obtained: TNF-α concentration in culture supernatant (TNF-α [1]) | TNF-α concentration in culture supernatant (TNF-α [2]) | IL-6 concentration in culture supernatant (IL-6)

CCCCCC/C=C/CCCCCC(=O)OC(CCCCCCCCCCC)CC(=O)NC1C(OCC2OC(OP(=O)(O)O)C(NC(=O)CC(=O)CCCCCCCCCCC)C(OC(=O)CC(O)CCCCCCC)C2O)OC(COC2(C(=O)O)CC(OC3(C(=O)O)CC(OC4OC(C(=O)O)C(OC5OC(CO)C(O)C(O)C5O)C(O)C4O)C(O)C(C(O)CO)O3)C(OC3OC(CO)C(O)C(O)C3O)C(C(O)CO)O2)C(OP(=O)(O)O)C1OC(=O)CC(O)CCCCCCC (stereo not drawn) [Formula (A2)]
Equivalent results were obtained: TNF-α concentration in culture supernatant (TNF-α [1]) | TNF-α concentration in culture supernatant (TNF-α [2]) | IL-6 concentration in culture supernatant (IL-6)

CCCCCC/C=C/CCCCCC(=O)OC(CCCCCCCCCCC)CC(=O)NC1C(OCC2OC(OP(=O)(O)O)C(NC(=O)CC(=O)CCCCCCCCCCC)C(OC(=O)CC(O)CCCCCCC)C2O)OC(COC2(C(=O)O)CC(OC3(C(=O)O)CC(O)C(OC4OC(C(=O)O)C(OC5OC(CO)C(O)C(O)C5O)C(O)C4O)C(C(O)CO)O3)C(OC3OC(COP(=O)(O)O)C(OC4OC(CO)C(O)C(O)C4O)C(O)C3O)C(C(O)CO)O2)C(OP(=O)(O)O)C1OC(=O)CC(O)CCCCCCC (stereo not drawn) [Formula (B1)]
Equivalent results were obtained: TNF-α concentration in culture supernatant (TNF-α [1]) | TNF-α concentration in culture supernatant (TNF-α [2]) | IL-6 concentration in culture supernatant (IL-6)

CCCCCC/C=C/CCCCCC(=O)OC(CCCCCCCCCCC)CC(=O)NC1C(OCC2OC(OP(=O)(O)O)C(NC(=O)CC(=O)CCCCCCCCCCC)C(OC(=O)CC(O)CCCCCCC)C2O)OC(COC2(C(=O)O)CC(OC3(C(=O)O)CC(O)C(OC4OC(C(=O)O)C(OC5OC(CO)C(O)C(O)C5O)C(O)C4O)C(C(O)CO)O3)C(OC3OC(CO)C(O)C(O)C3O)C(C(O)CO)O2)C(OP(=O)(O)O)C1OC(=O)CC(O)CCCCCCC (stereo not drawn) [Formula (B2)]
Equivalent results were obtained: TNF-α concentration in culture supernatant (TNF-α [1]) | TNF-α concentration in culture supernatant (TNF-α [2]) | IL-6 concentration in culture supernatant (IL-6)
